These results are taken from patent US20240368151A1, “NOVEL ERGOLINES AND METHODS OF TREATING MOOD DISORDERS” (priority 2021, published 2024).

In one series the target is D2 receptor (Homo sapiens (Human), UniProt P14416). As to the kind of experiment: FLIPR Ca^2+ flux agonist assay at D2. The series is classed as cell-based. How it is done:
(§1) Functional Assays at Adrenergic and Dopamine Receptors. Agonist activity at Alpha1A, Alpha2A, D1, and D2 receptors was determined using a FLIPR Ca^2+ flux assay at WuXi AppTec (Hong Kong) Limited according to their standard protocols. Briefly, stably transfected cells expressing the receptor of interest were grown and plated in a 384 well plate and incubated at 37° C. and 5% CO2 overnight. A solution of 250 mM probenecid in 1 mL FLIPR assay buffer was prepared fresh. This was combined with a fluorescent dye (Fluo-4 Direct™) to make a final assay concentration of 2.5 mM. […] The fluorescent dye was then added to the assay plate along with assay buffer to a final volume of 40 μL. The cell plate was incubated for 50 min at 37° C. and 5% CO2 and placed into the FLIPR Tetra along with the compound plate. 10 μL of references and compounds were then transferred from the compound plate into the cell plate and the fluorescent signal was read.

The target of the next series is Alpha2A receptor (Homo sapiens (Human), UniProt P08913). The series can be described thus: FLIPR Ca^2+ flux agonist assay at Alpha2A. The series is classed as cell-based. How it is done:
as §1

Series [1] can be described thus: Metabolic stability in human liver microsomes (HLM). The series is classed as in vitro ADME. The note with it: both sexes, human, pooled human liver microsomes, pH 7.4, NADPH. The text has this:
HLM Stability. Pooled HLM from adult male and female donors (Corning 452117) were used.

In a further series the target is 5-HT2B receptor (Homo sapiens (Human), UniProt P41595). As to the kind of experiment: FLIPR Ca^2+ flux agonist assay at 5-HT2B. The series is classed as cell-based. The following applies: HEK293. The procedure, abridged: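 Agonist-induced calcium flux was measured on FLIPR Tetra in stable HEK293 cells for 5-HT2A and 5-HT2B, and in stable CHO cells for 5-HT1A. Cells were loaded with Fluo-4 Direct dye and 2.5 mM probenecid for 50 min at 37 °C before compound addition and fluorescence reading.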

For the next series, the target named is 5-HT2A receptor (Homo sapiens (Human), UniProt P28223). The series is classed as cell-based. The note with it: for arrestin bias: potency in arrestin assay compared to Ca^2+ signaling assay: 5-HT2A arrestin vs G protein-dependent Ca^2+ assay; for 5-HT2A Arrestin % Act @ Max Dose / agonist type in the 5-HT2A arrestin recruitment assay, in words: beta-arrestin recruitment. Put shortly:
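PathHunter enzyme-fragment complementation in cells expressing ProLink-tagged 5-HT2A and β-arrestin–β-galactosidase fusion. Cells incubated at 37 °C before testing; recruitment read by chemiluminescence. Agonist activity expressed as % of maximal control ligand response after vehicle subtraction.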
Background: Activated receptors often draw arrestin, which recruitment assays turn into a signal.

D2 receptor, sequence (P14416 whole entry, looked up): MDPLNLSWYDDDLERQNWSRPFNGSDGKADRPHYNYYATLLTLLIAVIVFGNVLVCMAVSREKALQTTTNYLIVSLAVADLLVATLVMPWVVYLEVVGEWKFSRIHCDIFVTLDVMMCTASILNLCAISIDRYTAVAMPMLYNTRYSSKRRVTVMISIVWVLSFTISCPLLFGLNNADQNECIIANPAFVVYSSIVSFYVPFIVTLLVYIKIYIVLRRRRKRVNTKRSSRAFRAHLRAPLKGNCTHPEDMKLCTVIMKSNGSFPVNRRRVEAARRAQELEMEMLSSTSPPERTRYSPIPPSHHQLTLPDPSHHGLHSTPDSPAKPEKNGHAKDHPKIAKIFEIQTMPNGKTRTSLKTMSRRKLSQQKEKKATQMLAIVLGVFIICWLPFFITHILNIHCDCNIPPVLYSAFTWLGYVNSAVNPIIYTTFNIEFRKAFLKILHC
Alpha2A receptor, sequence (P08913 whole entry, looked up): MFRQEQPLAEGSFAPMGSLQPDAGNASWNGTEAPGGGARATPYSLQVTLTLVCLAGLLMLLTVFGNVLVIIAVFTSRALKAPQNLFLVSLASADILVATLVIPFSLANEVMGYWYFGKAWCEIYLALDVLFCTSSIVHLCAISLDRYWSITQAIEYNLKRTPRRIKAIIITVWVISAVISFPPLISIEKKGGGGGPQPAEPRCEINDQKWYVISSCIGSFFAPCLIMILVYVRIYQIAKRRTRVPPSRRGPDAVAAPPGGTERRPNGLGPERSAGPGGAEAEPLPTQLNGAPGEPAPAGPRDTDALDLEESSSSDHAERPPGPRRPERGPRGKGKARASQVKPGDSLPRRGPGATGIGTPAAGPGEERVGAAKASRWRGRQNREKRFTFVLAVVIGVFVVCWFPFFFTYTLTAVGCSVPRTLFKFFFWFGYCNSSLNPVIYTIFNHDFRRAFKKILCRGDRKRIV
5-HT2B receptor, sequence (P41595 whole entry, looked up): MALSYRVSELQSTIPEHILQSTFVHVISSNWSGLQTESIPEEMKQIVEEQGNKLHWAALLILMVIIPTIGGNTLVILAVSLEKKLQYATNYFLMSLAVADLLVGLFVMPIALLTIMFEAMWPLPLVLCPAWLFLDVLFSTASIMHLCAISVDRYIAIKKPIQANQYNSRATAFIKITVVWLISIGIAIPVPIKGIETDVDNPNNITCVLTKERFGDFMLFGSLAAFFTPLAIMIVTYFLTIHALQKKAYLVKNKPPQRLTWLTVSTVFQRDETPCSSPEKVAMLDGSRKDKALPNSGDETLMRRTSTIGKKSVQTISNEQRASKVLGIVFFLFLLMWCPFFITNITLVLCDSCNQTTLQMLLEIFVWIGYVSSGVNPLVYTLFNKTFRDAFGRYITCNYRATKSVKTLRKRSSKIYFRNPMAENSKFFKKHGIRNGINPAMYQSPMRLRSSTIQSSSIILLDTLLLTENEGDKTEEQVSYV

What is called half-life is the time needed for the level to fall by half in the phase considered. High values mean slow loss, low ones fast loss. `CCN(CC)C(=O)[C@@H]1C=C2c3cccc4[nH]cc(c34)C[C@H]2N(Cc2ccccc2OC)C1` [Compound 10, (6aR,9R)-N,N-diethyl-7-(2-methoxybenzyl)-4,6,6a,7,8,9-hexahydroindolo[4,3-fg]quinoline-9-carboxamide]: the “D2 % Act @ Max Dose” value on D2 receptor came to 86.87%. Further, on Alpha2A receptor, the “Alpha 2A % Act @ Max Dose” value was 36.52% and the “agonist efficacy at Alpha2A, in words” value is “very low efficacy agonists”. In series [1], this molecule had a half-life at 1 μM of 7.3 min. The “5-HT2B % Act @ Max Dose” value at 5-HT2B receptor is given as 2.005%. Besides, at 5-HT2A receptor, the “arrestin bias: potency in arrestin assay compared to Ca^2+ signaling assay” value was more than 50 fold; the “5-HT2A Arrestin % Act @ Max Dose” value turned out to be 47.06%; the “agonist type in the 5-HT2A arrestin recruitment assay, in words” value (“agonist type” for short) is given as “partial agonists”.
As for `CCCN1C[C@H](C(=O)N[C@H](C)CC)C=C2c3cccc4[nH]cc(c34)C[C@H]21` [Compound 3, (6aR,9R)-N-((R)-sec-butyl)-7-propyl-4,6,6a,7,8,9-hexahydroindolo[4,3-fg]quinoline-9-carboxamide], the “D2 % Act @ Max Dose” value at D2 receptor is 116.9%. In addition, the “Alpha 2A % Act @ Max Dose” value at Alpha2A receptor amounted to 96.82%. Moreover, in series [1], the half-life at 1 μM is 4.2 min. The “5-HT2B % Act @ Max Dose” value at 5-HT2B receptor was 94.11%. Also, on 5-HT2A receptor, the “5-HT2A Arrestin % Act @ Max Dose” value is given as 109.57% and the “agonist type” value is given as “full agonists”.
Regarding `CCN(CC)C(=O)[C@@H]1C=C2c3cccc4[nH]cc(c34)C[C@H]2N(CCCF)C1` [Compound 2, (6aR,9R)-N,N-diethyl-7-(3-fluoropropyl)-4,6,6a,7,8,9-hexahydroindolo[4,3-fg]quinoline-9-carboxamide], the “D2 % Act @ Max Dose” value at D2 receptor worked out at 91.2%. Besides, the “Alpha 2A % Act @ Max Dose” value at Alpha2A receptor is 64.96%. The same molecule had a half-life at 1 μM in series [1] of 19.1 min. Also, the “5-HT2B % Act @ Max Dose” value on 5-HT2B receptor worked out at 101.16%. Also, at 5-HT2A receptor, the “5-HT2A Arrestin % Act @ Max Dose” value is on record as 114.55% and the “agonist type” value was “full agonists”.
On to `CCN(CC)C(=O)[C@@H]1C=C2c3cccc4[nH]cc(c34)C[C@H]2N(CCc2ccccc2OC)C1` [Compound 11, (6aR,9R)-N,N-diethyl-7-(2-methoxyphenethyl)-4,6,6a,7,8,9-hexahydroindolo[4,3-fg]quinoline-9-carboxamide], for which the “D2 % Act @ Max Dose” value at D2 receptor was found to be 98.49%. Also, on Alpha2A receptor, the “Alpha 2A % Act @ Max Dose” value is listed as 14.18% and the “agonist efficacy at Alpha2A, in words” value is “very low efficacy agonists”. The half-life at 1 μM in series [1] amounted to 2.37 min. The “5-HT2B % Act @ Max Dose” value on 5-HT2B receptor came to 2.5%. Besides, on 5-HT2A receptor, the “arrestin bias: potency in arrestin assay compared to Ca^2+ signaling assay” value is on record as more than 50 fold; the “5-HT2A Arrestin % Act @ Max Dose” value came to 54.255%; the “agonist type” value is given as “partial agonists”.
For the molecule `CCCN1C[C@H](C(=O)NC(CC)CC)C=C2c3cccc4[nH]cc(c34)C[C@H]21` [Compound 6, (6aR,9R)-N-(pentan-3-yl)-7-propyl-4,6,6a,7,8,9-hexahydroindolo[4,3-fg]quinoline-9-carboxamide], the “D2 % Act @ Max Dose” value at D2 receptor was determined as 91.67%. In addition, the half-life at 1 μM in series [1] came to 1.61 min. Further, the “5-HT2B % Act @ Max Dose” value on 5-HT2B receptor turned out to be 92.93%. Also, at 5-HT2A receptor, the “5-HT2A Arrestin % Act @ Max Dose” value stood at 102.75% and the “agonist type” value is recorded as “full agonists”.
On to `CCCN1C[C@H](C(=O)N2[C@@H](C)C[C@@H]2C)C=C2c3cccc4[nH]cc(c34)C[C@H]21` [Compound 4, ((2S,4S)-2,4-dimethylazetidin-1-yl)((6aR,9R)-7-propyl-4,6,6a,7,8,9-hexahydroindolo[4,3-fg]quinolin-9-yl)methanone], for which, at D2 receptor, the “D2 % Act @ Max Dose” value is listed as 116.6%. The “Alpha 2A % Act @ Max Dose” value at Alpha2A receptor is recorded as 102.86%. This molecule yielded a half-life at 1 μM in series [1] of 10.6 min. On 5-HT2B receptor, the “5-HT2B % Act @ Max Dose” value is on record as 87.46%. Moreover, at 5-HT2A receptor, the “5-HT2A Arrestin % Act @ Max Dose” value came out at 116.8% and the “agonist type” value is reported as “full agonists”.
Regarding `CCCN1C[C@H](C(=O)N(CC)CC)C=C2c3cccc4[nH]cc(c34)C[C@H]21` [Compound 1, (6aR,9R)-N,N-diethyl-7-propyl-4,6,6a,7,8,9-hexahydroindolo[4,3-fg]quinoline-9-carboxamide], on D2 receptor, the “D2 % Act @ Max Dose” value stood at 94.51%. For the same molecule, on Alpha2A receptor, the “Alpha 2A % Act @ Max Dose” value is listed as 58.3%. This molecule came in with a half-life at 1 μM in series [1] of 15.1 min. Besides, the “5-HT2B % Act @ Max Dose” value at 5-HT2B receptor amounted to 103.75%. Also, at 5-HT2A receptor, the “5-HT2A Arrestin % Act @ Max Dose” value stood at 128.71% and the “agonist type” value was “full agonists”.
